Experiment: Increase in solubility of Compound A in dichloromethane/methanol by addition of metal compound
Assay type: physicochemical
Conditions: solvent dichloromethane/methanol=7/3
From the text: Increase in solubility of poorly water-soluble nonpeptidic physiologically active compound by addition of metal compound
An amount of a solvent (dichloromethane/methanol=7/3) which can dissolve 0.1 g of 2-ethoxy-1-[[2′-(1H-tetrazol-5-yl)biphenyl-4-yl]methyl]benzimidazole-7-carboxylic acid (hereinafter, abbreviated as Compound A) is shown in Table 1.

- Amount of solvent which can dissolve 0.1 g of Compound A (magnesium acetate tetrahydrate 48.7 mg added): 0.5 mL
- Amount of solvent which can dissolve 0.1 g of Compound A (no metal compound added): 3 mL
- Amount of solvent which can dissolve 0.1 g of Compound A (zinc acetate dihydrate 49.8 mg added): 0.5 mL
SMILES: CCOc1nc2cccc(C(=O)O)c2n1Cc1ccc(-c2ccccc2-c2nnn[nH]2)cc1 [Compound A, 2-ethoxy-1-[[2′-(1H-tetrazol-5-yl)biphenyl-4-yl]methyl]benzimidazole-7-carboxylic acid]

— US20040121008A1, “Process for producing sustained release preparation” (priority 2001, published 2004)
